# What was measured:
# [1] = test system: Mycobacterium tuberculosis; assay: Inhibition of Mycobacterium tuberculosis Lipy assessed as pomegranate oil TAG lipolysis at 4 times molar excess of inhibitor concentration related to 1 mole of enzyme incubated for 30 mins by microtitre plate assay
# [2] = test system: Mycobacterium tuberculosis; assay: Inhibition of Mycobacterium tuberculosis Lipy incubated for 30 mins by UV spectrophotometric analysis
# [3] = test system: Mycobacterium tuberculosis; assay: Inhibition of Mycobacterium tuberculosis Lipy assessed as pomegranate oil TAG lipolysis at 20 times molar excess of inhibitor concentration related to 1 mole of enzyme incubated for 30 mins by microtitre plate assay
# [4] = test system: Mycobacteroides abscessus; assay: Antibacterial activity against Mycobacterium abscessus CIP 104536T rough morphotype incubated for 1 to 14 days; assay type: functional; settings: time 1-14 day
# [5] = test system: Mycobacteroides abscessus; assay: Antibacterial activity against Mycobacterium abscessus CIP 104536T smooth morphotype incubated for 1 to 14 days; assay type: functional; settings: time 1-14 day
# [6] = test system: RAW264.7; assay: Cytotoxicity against mouse RAW264.7 cells; assay type: functional
# [7] = Inhibition of Mycobacterium tuberculosis Cut6
# [8] = (§1) Antibacterial activity against Mycobacterium Mycobacterium abscessus CIP 104536T infected in mouse RAW264.7 cells assessed as […] incubated for 4 to 5 days; assay type: functional; settings: Mycobacteroides abscessus, time 4-5 day
# [9] = test system: Mycobacterium tuberculosis; assay: Antibacterial activity against Mycobacterium tuberculosis; assay type: functional
# [10] = test system: RAW264.7; assay: as §1; assay type: functional; settings: Mycobacteroides abscessus, time 4-5 day
# [11] = test system: Mycobacterium tuberculosis; assay: Antibacterial activity against Mycobacterium tuberculosis incubated for 2 to 3 weeks; assay type: functional; settings: time 2-3 weeks
# [12] = Antibacterial activity against Mycobacterium Mycobacterium abscessus CIP 104536T infected in mouse RAW264.7 cells assessed as bacterial viability at 30 uM incubated for 4 to 5 days relative to control; assay type: functional, Mycobacteroides abscessus; settings: time 4-5 day
# [13] = test system: Mycobacterium; assay: Antibacterial activity against Mycobacterium by REMA assay; assay type: functional
Structure (SMILES),inhibition [1] [%],I50 [2] [molar excess],inhibition [3] [%],MIC50 [4] [µM],MIC50 [5] [µM],CC50 [6] [µM],other results
CCCCCCCCCCOc1nn(-c2cccc(Oc3ccccc3)c2)c(=O)o1,91.5,0.67,94.2,,,,
NCC[C@H](O)C(=O)N[C@@H]1C[C@H](N)[C@@H](O[C@H]2O[C@H](CN)[C@@H](O)[C@H](O)[C@H]2O)[C@H](O)[C@H]1O[C@H]1O[C@H](CO)[C@@H](O)[C@H](N)[C@H]1O [AMIKACIN],,,,7.4,3.9,,
CCCCCCCCCCCCCCCCO[P@]1(=O)OC[C@H]2COC(=O)C2=C(C)O1,,,,,,> 100,
CCCCCCCCCCC[C@@H](C[C@@H]1OC(=O)[C@H]1CCCCCC)OC(=O)[C@H]1CCCN1C(C)=O,,,,,,,IC50 [7]: 0.2 µM
NNC(=O)c1ccncc1 [ISONIAZID],,,,,,> 150,
O=c1oc(OCCOCc2ccccc2)nn1-c1cccc(Oc2ccccc2)c1,88,0.72,90.2,,,,
CCCCCCOc1nn(-c2ccc(Oc3ccccc3)cc2)c(=O)o1,38.7,2.9,77.2,,,> 100,
COc1nn(-c2ccc(Oc3ccccc3)cc2)c(=O)o1,60.8,0.93,79.4,> 200,88.2,,MIC50 [8]: 75.2 µM
C=CCCCCCCC[C@H]1C(=O)O[C@@H]1CCCCCNC(=O)c1ccc(N(C)C)cc1,,,,,,,INH [9]: 1.6 µM
CCCCCCCCOc1nn(-c2cccc(Oc3ccccc3)c2)c(=O)o1,83.2,0.71,86.6,,,,
CCOc1nn(-c2cccc(Oc3ccccc3)c2)c(=O)o1,21.7,6.5,53.8,,,,
CO[C@H]1/C=C/O[C@@]2(C)Oc3c(C)c(O)c4c(O)c(c(/C=N/N5CCN(C)CC5)c(O)c4c3C2=O)NC(=O)/C(C)=C\C=C\[C@H](C)[C@H](O)[C@@H](C)[C@@H](O)[C@@H](C)[C@H](OC(C)=O)[C@@H]1C [RIFAMPIN],,,,,,24,
CCCCCCOc1nn(-c2ccccc2)c(=O)o1,35,> 40,38.8,,,> 100,
COc1nn(-c2ccccc2)c(=O)o1,34.4,10.9,81.8,> 200,> 200,,MIC50 [8]: 36.5 µM
C[C@@H](O)[C@H]1C(=O)N2C(C(=O)O)=C(SCCNC=N)C[C@H]12 [IMIPENEM ANHYDROUS],,,,29.9,11.3,,MIC50 [8]: 28.3 µM
CCCCC[C@H]1CC[P@@](=O)(OC)OC(C)=C1C(=O)OC,,,,,,> 100,
CCCCCCCCCCCC[C@@H]1CC[P@@](=O)(OC)OC(C)=C1C(=O)OC,,,,> 100,> 100,> 100,MIC50 [8]: 7.9 µM
CCCCCCCCCCCCCCCCO[P@]1(=O)OC[C@@H]2COC(=O)C2=C(C)O1,,,,,,> 100,
CC(C)COc1nn(-c2ccccc2)c(=O)o1,31.6,9.2,47.9,,,> 100,
O=c1oc(OCCOCc2ccccc2)nn1-c1ccccc1,89,0.61,92.2,,,> 100,

Structure (SMILES),inhibition [1] [%],I50 [2] [molar excess],inhibition [3] [%],MIC50 [4] [µM],MIC50 [5] [µM],CC50 [6] [µM],other results
CCCCCCCCCCC[C@@H](C[C@@H]1OC(=O)[C@H]1CCCCCC)OC(=O)[C@@H]1CSCN1C(C)=O,,,,,,,IC50 [7]: 0.2 µM
CCCCCCCCCCC[C@@H](C[C@@H]1OC(=O)[C@H]1CCCCCC)OC(=O)[C@H]1CCCN1C=O,,,,,,,IC50 [7]: 0.2 µM
CCCCCCCCCCCCCCCCC1=C(C(=O)OC)CCOP(=O)(OC)O1 (stereo unspecified),,,,6.9,60,,MIC50 [10]: NE
COc1nn(-c2cccc(Oc3ccccc3)c2)c(=O)o1,63.6,2.4,85.9,,,,MIC [11]: 50 µM
CCCCCC(CC)Oc1nn(-c2cccc(Oc3ccccc3)c2)c(=O)o1 (stereo unspecified),89.6,0.73,94.8,,,,
O=c1oc(OCCOCc2ccccc2)nn1-c1ccc(Oc2ccccc2)cc1,97,0.59,98.4,,,> 100,
CCCCCCCCCC[C@H]1CC[P@@](=O)(OC)OC(C)=C1C(=O)OC,,,,> 100,> 100,> 100,MIC50 [8]: 65.3 µM
CCCCCCOc1nn(-c2cccc(Oc3ccccc3)c2)c(=O)o1,39.9,3.3,76.5,,,,
CC(C)COc1nn(-c2cccc(Oc3ccccc3)c2)c(=O)o1,37.4,3.9,49.4,,,,
CCCCCCCCCCCCOc1nn(-c2cccc(Oc3ccccc3)c2)c(=O)o1,88.7,0.77,90.4,,,,
CCCCOc1nn(-c2cccc(Oc3ccccc3)c2)c(=O)o1,15.6,> 40,63.7,,,,
COCCOc1nn(-c2cccc(Oc3ccccc3)c2)c(=O)o1,92.4,0.69,93.7,,,,
CC(C)COc1nn(-c2ccc(Oc3ccccc3)cc2)c(=O)o1,33.8,> 40,41.6,53.2,33,> 100,Activity [12]: 59%; MIC50 [8]: < 30 µM
CCCCCCCCCCC[C@@H](C[C@@H]1OC(=O)[C@H]1CCCCCC)OC(=O)[C@@H]1CCCN1C(C)=O,,,,,,,IC50 [7]: 0.2 µM
CCCCCCCCCCCC[C@H]1CC[P@@](=O)(OC)OC(C)=C1C(=O)OC,,,,> 100,> 100,> 20,MIC50 [8]: 2 µM
CCCCCCCCCCC[C@@H](C[C@@H]1OC(=O)[C@H]1CCCCCC)OC(=O)[C@@H]1CCCN1C=O,,,,,,,IC50 [7]: 0.2 µM
CCCCCCCCCC[C@@H]1CC[P@@](=O)(OC)OC(C)=C1C(=O)OC,,,,> 100,> 100,> 100,MIC50 [8]: 29.3 µM
CCCCCCCCCCC[C@@H](C[C@@H]1OC(=O)[C@H]1CCCCCC)OC(=O)[C@H](CC(C)C)NC=O [ORLISTAT],26.8,7.1,87.6,,,,IC50 [7]: 3.8 µM
CCCCCCCCCCCCCCCCOP1(=O)OCCC(C(=O)OC)=C(C)O1 (stereo unspecified),,,,0.37,12.7,> 100,MIC [13]: 2 mg/L; MIC50 [10]: NE
CCCCCCCCCCC1=C(C(=O)OC)CCOP(=O)(OC)O1 (stereo unspecified),,,,13.9,85,,MIC50 [10]: NE
